Assay results taken from PubChem BioAssay (NCI).
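Method: 48-hour compound exposure of cells in 96-well plates, five concentrations, linear interpolation of endpoints. Here, GI50 denotes the concentration required for 50% inhibition of growth. TGI: concentration producing complete growth inhibition.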

Columns and labels:
Assay in all cases: NCI tumour cell line growth inhibition, 48 h
786-0 renal = test system: 786-0 renal
A498 renal = test system: A498 renal
A549 NSCLC = test system: A549 NSCLC
ACHN renal = test system: ACHN renal
BT-549 breast = test system: BT-549 breast
CAKI-1 renal = test system: CAKI-1 renal
CCRF-CEM leukemia = test system: CCRF-CEM leukemia
COLO 205 colon = test system: COLO 205 colon
DU-145 prostate = test system: DU-145 prostate
EKVX NSCLC = test system: EKVX NSCLC
HCC-2998 colon = test system: HCC-2998 colon
HCT-116 colon = test system: HCT-116 colon
HCT-15 colon = test system: HCT-15 colon
HL-60(TB) leukemia = test system: HL-60(TB) leukemia
HOP-62 NSCLC = test system: HOP-62 NSCLC
HOP-92 NSCLC = test system: HOP-92 NSCLC
HS 578T breast = test system: HS 578T breast
HT29 colon = test system: HT29 colon
IGROV1 ovarian = test system: IGROV1 ovarian
K-562 leukemia = test system: K-562 leukemia
KM12 colon = test system: KM12 colon
LOX IMVI melanoma = test system: LOX IMVI melanoma
M14 melanoma = test system: M14 melanoma
MALME-3M melanoma = test system: MALME-3M melanoma
MCF7 breast = test system: MCF7 breast
MDA-MB-231 breast = test system: MDA-MB-231 breast
MDA-MB-435 = test system: MDA-MB-435
MDA-MB-468 breast = test system: MDA-MB-468 breast
MOLT-4 leukemia = test system: MOLT-4 leukemia
NCI-H226 lung = test system: NCI-H226 lung
NCI-H23 lung = test system: NCI-H23 lung
NCI-H460 lung = test system: NCI-H460 lung
NCI-H522 lung = test system: NCI-H522 lung
OVCAR-3 ovarian = test system: OVCAR-3 ovarian
OVCAR-4 ovarian = test system: OVCAR-4 ovarian
OVCAR-5 ovarian = test system: OVCAR-5 ovarian
OVCAR-8 ovarian = test system: OVCAR-8 ovarian
PC-3 prostate = test system: PC-3 prostate
RPMI-8226 leukemia = test system: RPMI-8226 leukemia
RXF 393 renal = test system: RXF 393 renal
SF-268 CNS = test system: SF-268 CNS
SF-295 CNS = test system: SF-295 CNS
SF-539 CNS = test system: SF-539 CNS
SK-MEL-2 melanoma = test system: SK-MEL-2 melanoma
SK-MEL-28 melanoma = test system: SK-MEL-28 melanoma
SK-MEL-5 melanoma = test system: SK-MEL-5 melanoma
SK-OV-3 ovarian = test system: SK-OV-3 ovarian
SN12C renal = test system: SN12C renal
SNB-19 CNS = test system: SNB-19 CNS
SNB-75 CNS = test system: SNB-75 CNS
SR leukemia = test system: SR leukemia
SW-620 colon = test system: SW-620 colon
T-47D breast = test system: T-47D breast
TK-10 renal = test system: TK-10 renal
U251 CNS = test system: U251 CNS
UACC-257 melanoma = test system: UACC-257 melanoma
UACC-62 melanoma = test system: UACC-62 melanoma
UO-31 renal = test system: UO-31 renal

In the case of `O=C(/C=C/c1cccc(OCc2ccc(F)cc2)c1)c1nc2ccccc2[nH]1`, the GI50 (786-0 renal) was 18.5 µM, the TGI (786-0 renal) was 45.9 µM and the GI50 (A498 renal) was > 100 µM. The TGI (A498 renal) was > 100 µM, the GI50 (A549 NSCLC) was 65.1 µM and the TGI (A549 NSCLC) was > 100 µM. The GI50 (ACHN renal) was 47 µM, the TGI (ACHN renal) was > 100 µM and the GI50 (BT-549 breast) was 18.4 µM. For the same compound, the TGI (BT-549 breast) was 46.4 µM, the GI50 (CAKI-1 renal) was 24.5 µM and the TGI (CAKI-1 renal) was > 100 µM. For the same compound, the GI50 (CCRF-CEM leukemia) was 10.9 µM, the TGI (CCRF-CEM leukemia) was > 100 µM and the GI50 (COLO 205 colon) was 39.8 µM. The TGI (COLO 205 colon) was > 100 µM, the GI50 (DU-145 prostate) was 29.5 µM and the TGI (DU-145 prostate) was > 100 µM. For the same compound, the GI50 (EKVX NSCLC) was 41.3 µM, the TGI (EKVX NSCLC) was > 100 µM and the GI50 (HCC-2998 colon) was 15.5 µM. For the same compound, the TGI (HCC-2998 colon) was 30 µM, the GI50 (HCT-116 colon) was 11.9 µM and the TGI (HCT-116 colon) was 31.4 µM. It also gave a GI50 (HCT-15 colon) of 13 µM, a TGI (HCT-15 colon) of 28.6 µM and a GI50 (HL-60(TB) leukemia) of 19.5 µM. For the same compound, the TGI (HL-60(TB) leukemia) was 62.4 µM, the GI50 (HOP-62 NSCLC) was 41.5 µM and the TGI (HOP-62 NSCLC) was > 100 µM. The GI50 (HOP-92 NSCLC) was 8.64 µM, the TGI (HOP-92 NSCLC) was 67.5 µM and the GI50 (HS 578T breast) was 25.9 µM. The TGI (HS 578T breast) was 95.7 µM, the GI50 (HT29 colon) was 18.4 µM and the TGI (HT29 colon) was 40.1 µM. The GI50 (IGROV1 ovarian) was 21.9 µM, the TGI (IGROV1 ovarian) was 66.6 µM and the GI50 (K-562 leukemia) was 8.34 µM. The TGI (K-562 leukemia) was 78.8 µM, the GI50 (KM12 colon) was 13.5 µM and the TGI (KM12 colon) was 65.9 µM. The GI50 (LOX IMVI melanoma) was 11.4 µM, the TGI (LOX IMVI melanoma) was 25.4 µM and the GI50 (M14 melanoma) was 25.5 µM. For the same compound, the TGI (M14 melanoma) was 83.6 µM, the GI50 (MALME-3M melanoma) was 69.4 µM and the TGI (MALME-3M melanoma) was > 100 µM. It also gave a GI50 (MCF7 breast) of 4.52 µM, a TGI (MCF7 breast) of 32.5 µM and a GI50 (MDA-MB-231 breast) of 18.4 µM. For the same compound, the TGI (MDA-MB-231 breast) was 47.8 µM, the GI50 (MDA-MB-435) was 21.2 µM and the TGI (MDA-MB-435) was 59.9 µM. The GI50 (MDA-MB-468 breast) was 15 µM, the TGI (MDA-MB-468 breast) was 32.3 µM and the GI50 (MOLT-4 leukemia) was 21.9 µM. The TGI (MOLT-4 leukemia) was > 100 µM, the GI50 (NCI-H226 lung) was 51 µM and the TGI (NCI-H226 lung) was > 100 µM. For the same compound, the GI50 (NCI-H23 lung) was 20.5 µM, the TGI (NCI-H23 lung) was 57.1 µM and the GI50 (NCI-H460 lung) was 34.8 µM. For the same compound, the TGI (NCI-H460 lung) was > 100 µM, the GI50 (NCI-H522 lung) was 27.5 µM and the TGI (NCI-H522 lung) was > 100 µM. For the same compound, the GI50 (OVCAR-3 ovarian) was 13.4 µM, the TGI (OVCAR-3 ovarian) was 37.6 µM and the GI50 (OVCAR-4 ovarian) was 66.5 µM. The TGI (OVCAR-4 ovarian) was > 100 µM, the GI50 (OVCAR-5 ovarian) was 29.3 µM and the TGI (OVCAR-5 ovarian) was > 100 µM. The GI50 (OVCAR-8 ovarian) was 34.4 µM, the TGI (OVCAR-8 ovarian) was > 100 µM and the GI50 (PC-3 prostate) was 27.1 µM. The TGI (PC-3 prostate) was > 100 µM, the GI50 (RPMI-8226 leukemia) was 3.09 µM and the TGI (RPMI-8226 leukemia) was 10.8 µM. The GI50 (RXF 393 renal) was 15 µM, the TGI (RXF 393 renal) was 31.2 µM and the GI50 (SF-268 CNS) was 37.7 µM. For the same compound, the TGI (SF-268 CNS) was > 100 µM, the GI50 (SF-295 CNS) was 32.7 µM and the TGI (SF-295 CNS) was > 100 µM. It also gave a GI50 (SF-539 CNS) of 17.6 µM, a TGI (SF-539 CNS) of 32.2 µM and a GI50 (SK-MEL-2 melanoma) of 81.3 µM. The TGI (SK-MEL-2 melanoma) was > 100 µM, the GI50 (SK-MEL-28 melanoma) was 21.9 µM and the TGI (SK-MEL-28 melanoma) was 61.2 µM. The GI50 (SK-MEL-5 melanoma) was 31.7 µM, the TGI (SK-MEL-5 melanoma) was > 100 µM and the GI50 (SK-OV-3 ovarian) was > 100 µM. The TGI (SK-OV-3 ovarian) was > 100 µM, the GI50 (SN12C renal) was 62.9 µM and the TGI (SN12C renal) was > 100 µM. For the same compound, the GI50 (SNB-19 CNS) was 25.3 µM, the TGI (SNB-19 CNS) was > 100 µM and the GI50 (SNB-75 CNS) was 34.2 µM. For the same compound, the TGI (SNB-75 CNS) was > 100 µM, the GI50 (SR leukemia) was 4.68 µM and the TGI (SR leukemia) was > 100 µM. The GI50 (SW-620 colon) was 12.2 µM, the TGI (SW-620 colon) was 34.3 µM and the GI50 (T-47D breast) was 29.2 µM. The TGI (T-47D breast) was > 100 µM, the GI50 (TK-10 renal) was 35.1 µM and the TGI (TK-10 renal) was > 100 µM. The GI50 (U251 CNS) was 13.5 µM, the TGI (U251 CNS) was 35.7 µM and the GI50 (UACC-257 melanoma) was 66.2 µM. For the same compound, the TGI (UACC-257 melanoma) was > 100 µM, the GI50 (UACC-62 melanoma) was 18.7 µM and the TGI (UACC-62 melanoma) was > 100 µM. It also gave a GI50 (UO-31 renal) of 13.4 µM and a TGI (UO-31 renal) of 29 µM.
